Reference: publication PMC6265310, “Purification, Characterization and in vitro Evaluation of Polymyxin A From Paenibacillus dendritiformis: An Underexplored Member of the Polymyxin Family” (Frontiers in Microbiology, 2018)
Where two headings read alike, the source gives them in different places. Where a SMILES comes first, the peptide text is derived from it. Bridges are numbered along the chain shown (N, C = ends). [ ]: non-standard residue; d: D form. The star is where a group is joined. X1 = CC[C@H](C)CCCCC(=O)*; dDab = NCC[C@@H](N)C(=O)O; Dab = NCC[C@H](N)C(=O)O

Tests used:
[1] = system: K. Pneumoniae GMCH13
[2] = system: P. aeruginosa PA4
[3] = system: P. aeruginosa PA5
[4] = system: K. Pneumoniae GMCH 16
[5] = system: E. coli 7534
[6] = system: E. coli 7932
[7] = system: K. Pneumoniae GMCH04
[8] = system: Vibrio cholerae MTCC 3906
[9] = system: A. baumannii AB2
[10] = system: E. coli 3185
[11] = system: K. Pneumoniae 827
[12] = system: P. aeruginosa PA6
[13] = system: Klebsiella pneumoniae ATCC BAA1706; conditions: Klebsiella pneumoniae ATCC BAA1706
[14] = system: E. coli 14504
[15] = system: Acinetobacter baumannii ATCC 19606; conditions: Acinetobacter baumannii ATCC 19606; Ca-MHB, 37°C, 20–24 h
[16] = system: A. baumannii AB1
[17] = system: P. aeruginosa GMCH06
[18] = system: Escherichia coli ATCC 35218; conditions: Escherichia coli ATCC 35218
[19] = system: E. coli 9062
[20] = system: Klebsiella pneumoniae ATCC 29665; conditions: Klebsiella pneumoniae ATCC 29665
[21] = system: E. coli 14084
[22] = system: Klebsiella pneumoniae ATCC- BAA 2146; conditions: Klebsiella pneumoniae ATCC- BAA 2146
[23] = system: K. Pneumoniae B8
[24] = system: K. Pneumoniae GMCH11
[25] = system: Pseudomonas aeruginosa ATCC 27853; conditions: Pseudomonas aeruginosa ATCC 27853
[26] = system: Klebsiella pneumoniae ATCC 700603; conditions: Klebsiella pneumoniae ATCC 700603
[27] = system: human leukemic monocyte cell line (THP-1 ATCC TIB-202); assay type: cell-based
Procedure: (§1) 3-(4,5-dimethylthiazol-2-yl)-2,5-diphenyltetrazolium bromide (MTT) assay was employed to examine the cytotoxicity against human leukemic monocyte cell line (THP-1 ATCC TIB-202) and human embryonic kidney cell line (HEK293 ATCC CRL-1573) as explained by [Kaur et al. (2017)]. Toxicity of both compounds was compared with polymyxin B and colistin at concentrations ranging from 62.5 to1000 μg/ml.

[28] = system: human embryonic kidney cell line (HEK293 ATCC CRL-1573); assay type: cell-based
Procedure: as §1

[29] = system: A. baumannii GMCH 14
[30] = system: E. coli 14363
[31] = system: P. aeruginosa PA1
[32] = system: P. aeruginosa PA2
[33] = system: E. coli 13425
[34] = system: A. baumannii GMCH05
[35] = system: Staphylococcus aureus ATCC 25923; conditions: Staphylococcus aureus ATCC 25923
[36] = system: K. Pneumoniae 1573
[37] = system: E. coli 7210
[38] = system: Enterococcus faecalis ATCC 51299; conditions: Enterococcus faecalis ATCC 51299
[39] = system: Escherichia coli ATCC 25922; conditions: Escherichia coli ATCC 25922
[40] = system: A. baumannii GMCH18
[41] = system: K. Pneumoniae GMCH12
[42] = system: Vibrio parahaemolyticus ATCC17802
[43] = system: K. Pneumoniae GMCH10
[44] = system: Bacillus subtilis ATCC 6633; conditions: Bacillus subtilis ATCC 6633
[45] = system: P. aeruginosa PA3
[46] = system: K. Pneumoniae 1428
[47] = system: P. aeruginosa ATCC 27853; assay: Time-kill kinetics; assay type: cell-based; conditions: P. aeruginosa ATCC 27853, 2xMIC
[48] = system: LPS (E. coli strain 055:B5 origin); assay type: binding; conditions: read-out: Dissociation constant (Kd)
[49] = THP-1 cells, MTT, 62.5 to 1000 μg/ml

CC[C@H](C)CCCCC(=O)N[C@@H](CCN)C(=O)N[C@H](C(=O)N[C@H](CCN)C(=O)N[C@H]1CCNC(=O)[C@H]([C@@H](C)O)NC(=O)[C@H](CCN)NC(=O)[C@H](CCN)NC(=O)[C@H]([C@@H](C)O)NC(=O)[C@@H](CC(C)C)NC(=O)[C@H](CCN)NC1=O)[C@@H](C)O [P2, polymyxin A1] (X1-[Dab]T[dDab][Dab][Dab][dL]T[Dab][Dab]T; lactam 4-C)
2 µg/mL: MIC ([3]; PA5) | MIC ([12]; PA6) | MIC ([31]; PA1) | MIC ([32]; PA2) | MIC ([45]; PA3) | MIC [46]; 1428
0.5 µg/mL: MIC ([1]; GMCH13) | MIC ([4]; GMCH 16) | MIC [5]; 7534 | MIC ([7]; GMCH04) | MIC [10]; 3185 | MIC [14]; 14504 | MIC [18] | MIC [21]; 14084 | MIC [30]; 14363 | MIC [36]; 1573 | MIC ([40]; GMCH18)
>16 µg/mL: MIC [35] | MIC [38]
highest toxicity among four compounds: toxicity ranking against HEK cells [28]
8 µg/mL: MIC [8] | MIC [44]
1 µg/mL: MIC ([2]; PA4) | MIC [6]; 7932 | MIC ([9]; AB2) | MIC [11]; 827 | MIC [13] | MIC [15] | MIC ([16]; AB1) | MIC ([17]; GMCH06) | MIC [19]; 9062 | MIC [20] | MIC [22] | MIC ([23]; B8) | MIC ([24]; GMCH11) | MIC [25] | MIC [26] | MIC ([29]; GMCH 14) | MIC [33]; 13425 | MIC ([34]; GMCH05) | MIC [37]; 7210 | MIC [39] | MIC ([41]; GMCH12) | MIC [42] | MIC ([43]; GMCH10)
500 µg/mL: IC50 [27]

polymyxin B [PB, reference compound]
125 µg/mL: IC50 [27, 49]
0.5 µg/mL: MIC [4] | MIC [7] | MIC [10] | MIC [18] | MIC [21] | MIC [30]
2 h: time to kill [47]
2 µg/mL: MIC [3] | MIC [12] | MIC [31] | MIC [32] | MIC [45] | MIC [46]
16 µg/mL: MIC [35]
1 µg/mL: MIC [1] | MIC [2] | MIC [5] | MIC [6] | MIC [9] | MIC [11] | MIC [13] | MIC [14] | MIC [15] | MIC [16] | MIC [17] | MIC [19] | MIC [20] | MIC [22] | MIC [23] | MIC [24] | MIC [25] | MIC [26] | MIC [29] | MIC [33] | MIC [34] | MIC [36] | MIC [37] | MIC [39] | MIC [40] | MIC [41] | MIC [42] | MIC [43]
4 µg/mL: MIC [44]
8 µg/mL: MIC [8]
3.39 µM: Kd [48]
>16 µg/mL: MIC [38]

polymyxin E (colistin) [PE, reference compound]
2 µg/mL: MIC ([3]; P. aeruginosa PA5, MDR clinical isolate) | MIC ([12]; P. aeruginosa PA6, MDR clinical isolate) | MIC ([31]; P. aeruginosa PA1, MDR clinical isolate) | MIC ([32]; P. aeruginosa PA2, MDR clinical isolate) | MIC ([45]; P. aeruginosa PA3, MDR clinical isolate) | MIC ([46]; K. Pneumoniae 1428, MDR clinical isolate)
> 250 µg/mL: IC50 [27, 49]
0.5 µg/mL: MIC ([5]; E. coli 7534, MDR clinical isolate) | MIC ([7]; K. Pneumoniae GMCH04, MDR clinical isolate) | MIC ([10]; E. coli 3185, MDR clinical isolate) | MIC [13] | MIC [18] | MIC [20] | MIC ([21]; E. coli 14084, MDR clinical isolate) | MIC [22] | MIC ([24]; K. Pneumoniae GMCH11, MDR clinical isolate) | MIC ([30]; E. coli 14363, MDR clinical isolate)
above 1000 μg/ml: IC50 ([28]; HEK293 cells, MTT, 62.5 to 1000 μg/ml)
1 µg/mL: MIC ([1]; K. Pneumoniae GMCH13, MDR clinical isolate) | MIC ([2]; P. aeruginosa PA4, MDR clinical isolate) | MIC ([4]; K. Pneumoniae GMCH 16, MDR clinical isolate) | MIC ([6]; E. coli 7932, MDR clinical isolate) | MIC ([9]; A. baumannii AB2, MDR clinical isolate) | MIC ([11]; K. Pneumoniae 827, MDR clinical isolate) | MIC ([14]; E. coli 14504, MDR clinical isolate) | MIC [15] | MIC ([16]; A. baumannii AB1, MDR clinical isolate) | MIC ([17]; P. aeruginosa GMCH06, MDR clinical isolate) | MIC ([19]; E. coli 9062, MDR clinical isolate) | MIC ([23]; K. Pneumoniae B8, MDR clinical isolate) | MIC [25] | MIC [26] | MIC ([29]; A. baumannii GMCH 14, MDR clinical isolate) | MIC ([33]; E. coli 13425, MDR clinical isolate) | MIC ([34]; A. baumannii GMCH05, MDR clinical isolate) | MIC ([36]; K. Pneumoniae 1573, MDR clinical isolate) | MIC ([37]; E. coli 7210, MDR clinical isolate) | MIC [39] | MIC ([40]; A. baumannii GMCH18, MDR clinical isolate) | MIC ([41]; K. Pneumoniae GMCH12, MDR clinical isolate) | MIC [42] | MIC ([43]; K. Pneumoniae GMCH10, MDR clinical isolate)
16 µg/mL: MIC [44]
>16 µg/mL: MIC [8] | MIC [35] | MIC [38]
7.04 µM: Kd [48]
